Experimental findings from patent US20240124409A1, “GUAIANOLIDE SESQUITERPENE LACTONE DERIVATIVES AND PHARMACEUTICAL USE THEREOF” (NANJING UNIVERSITY OF CHINESE MEDICINE, priority 2021, published 2024) are described below.

Data set [1] in a line: Stability in artificial gastric juice environment (HPLC). The settings on record: 37° C.
Protocol: The samples were dissolved in 500 μL of chromatographic methanol, into which were added 1500 μL of artificial gastric juice, mixed well and then dissolved completely by ultrasound. 50 μL of the above solutions were aspirated precisely, diluted by adding 200 μL of chromatographic methanol, filtered and analyzed by HPLC, wherein the HPLC analysis conditions were mobile phase: 65% methanol -35% water, flow rate: 0.8 mL/min, and column temperature: 25° C., and the initial peak areas were recorded. The above solutions were placed on a constant temperature water bath at 37° C., sampled at 8 h, 16 h and 24 h respectively, and analyzed by HPLC. By calculating the peak areas respectively, the stability data of the corresponding samples in artificial gastric juice environment at 8 h, 16 h and 24 h can be obtained.
In data set [2] the test system is H22 cells. The data set can be described thus: H22 subcutaneous mouse xenograft model, tumor growth. Conditions: 2 weeks. The class given is in vivo, BALB/c mice. The method, then: (§1) H22 cells were cultured and amplified in vitro. Appropriate amount of the cells in logarithmic growth phase were resuspended in a suspension of a serum-free RPMI 1640 medium and Matrigel (1:1) to prepare a cell suspension in 3×105/100 μL under sterile conditions. 100 μL of the cell suspension was subcutaneously inoculated into the armpits of the front left limbs of BALB/c mice with a syringe. When the tumor volume grew to 100-200 mm^3, animals with moderate tumor size were randomly divided into groups, with 6 animals in each group. […] The mice were administered intragastrically every day for 2 weeks. During the administration, the weights and tumor diameters of the mice were measured every day. After the experiment, the mice were sacrificed by cervical dislocation, and the tumors were taken and weighed. The formula for calculating a tumor volume (TV) is: TV=½×a×b^2, where a represents the long diameter of a tumor; b represents the short diameter of a tumor.

Data set [3] relates to CT26 cells. The data set can be described thus: CT26 subcutaneous mouse xenograft model. It counts as in vivo, C57BL/6 mice. Conditions: 3 weeks. The method, then: CT26 cells were cultured and amplified in vitro. Appropriate amount of the cells in logarithmic growth phase were resuspended in a suspension of a serum-free RPMI 1640 medium and Matrigel (1:1) to prepare a cell suspension in 5×10^5/100 μL under sterile conditions. 100 μL of the cell suspension was subcutaneously inoculated into the armpits of the front left limbs of male C57BL/6 mice with a syringe. When the tumor volume grew to 50-70 mm^3, animals with moderate tumor size were randomly divided into groups, with 5 animals in each group. […] The mice were administered intragastrically every day for 3 weeks. During the administration, the weights and tumor diameters of the mice were measured every day. After the experiment, the mice were sacrificed by cervical dislocation, and the tumors were taken and weighed. The formula for calculating a tumor volume (TV) is: TV=½×a×b2, where a represents the long diameter of a tumor; b represents the short diameter of a tumor.

The subject of data set [4] is Hepa1-6 cells. Nature of the data set: Hepa1-6 subcutaneous mouse xenograft model. The class given is in vivo, C57BL/6 mice. Conditions: 2 weeks. The method, then:
as §1, with “Hepa1-6” for “H22”, “DMEM” for “RPMI 1640”, “2.5×10^6/100” for “3×105/100”, “C57BL/6” for “BALB/c”

The subject of data set [5] is MDSCs and T cells. Nature of the data set: H22 xenograft model, flow cytometry of MDSCs and T cells in tumor and spleen. It counts as in vivo, BALB/c mice. The protocol: as §1
The tumor-bearing mice were sacrificed by the cervical dislocation method, placed in a beaker containing 75% alcohol, and the tumors of the mice were peeled off. The tumors were first soaked in a sterile petri dish containing RPMI 1640. After all the tumors were peeled off, fingernail sized tumor was cut off and transferred to a 1.5 mL EP tube. The tumors were cut into small pieces, and transferred into a 15 mL centrifuge tube containing 3-5 mL of digestive enzymes (Collagenase IV 1 mg/mL, Hyaluronidase 1 mg/mL, and DNase I 20 U/mL), and digested in a shaker at 200 rpm and 37° C. for 1 h. After digestion, the mixture was allowed to pass through a 200-mesh screen to obtain the suspension of the tumor cells. The resulting tumor suspension was centrifuged at 1600 rpm for 5 min. The supernatant was aspirated away. 1 mL of 1×PBS was added into each tube to resuspend the cells. The cell suspension was transferred into a 1.5 mL EP tube, and centrifuged at 1600 rpm for 5 min. The supernatant was removed. 100 μL of 1×PBS was used in each tube to resuspend the cells respectively. Then 1 μL of a viability dye was added. The mixture was incubated at room temperature in the dark for 15 min after being mixed well. At the same time, the spleen was taken out with a tweezer, placed into a sterile petri dish containing 5 mL of the RPMI 1640 medium, and positioned on a 200-mesh cell screen. The spleen was gently ground with the needle core of a 10 mL syringe. A small amount of the RPMI 1640 medium was aspirated to rinse the cell screen. The spleen cell suspension was rinsed into a 15 mL centrifuge tube, and centrifuged at 1600 rpm for 5 min to collect cells. The cells were washed once with 1×PBS. 3 mL of an erythrocyte lysate (diluted with ddH2O) was added to each tube to lyse for 5 min. After lysing, 10 mL of 1×PBS was added to each tube to stop lysing. The mixture was centrifuged at 1600 rpm for 5 min. 1 mL of 1×PBS was added to each 15 mL centrifuge tube. The mixture was transferred to a 1.5 mL EP tube, and centrifuged at 1600 rpm for 5 min. 1 mL of 1×PBS was added to each tube of the stained tumor cells and lysed spleen cells respectively to wash once. The mixture was centrifuged at 1600 rpm for 5 min, and the supernatant was removed. 100 μL of 1×PBS was used to resuspend the tumor cells and spleen cells respectively. 1 μL of the FcX™ antibody was then added to each tube. The mixture was incubated at room temperature in the dark for 10 min. After the incubation, 1 μL of each of the CD45, CD11b and Gr1 antibodies was added to each tube sequentially. The mixture was incubated at 4° C. in the dark for 30 min, and washed once with 1×PBS after the incubation. The supernatant was discarded. 300 μL of 1×PBS was used to resuspend the cells. The mixture was filtered through a filter membrane into a flow tube, and detected on a machine.
In general terms: Flow cytometry measures light scatter and fluorescence of single cells or particles in a stream.

Marks after values point to notes of the source that are not given here.

Consider `C=C1C(=O)O[C@@H]2[C@@H]3[C@]4(CC[C@@]3(C)O)C[C@]4(C)CC[C@@H]12` [Compound 1], for which, in data set [1], the “Non-degradation percentage at 8 h” value is recorded as 99.08%, the “Non-degradation percentage at 16 h” value was 98.76% and the “Non-degradation percentage at 24 h” value is on record as 98.16%.

Turning to `CN(C)C[C@@H]1C(=O)O[C@H]2[C@H]1CC[C@@]1(C)C[C@]13CC[C@@](C)(O)[C@H]23` [Compound 23], in data set [2] (8.43 mg/kg/d i.g.), the Tumor growth inhibition amounted to 42.92% and the Tumor weight came out at 4.88 g. In data set [3] (16.86 mg/kg/d i.g.), this compound displayed a Tumor growth inhibition of 43.36% and a Tumor weight of 4.62 g. Besides, in data set [4] (8.43 mg/kg/d i.g.), the Tumor growth inhibition stood at 96.78%*** and the Tumor weight was 0.03 g. Further, in data set [5] (8.43 mg/kg/d), the “MDSCs in Spleen” value amounted to 23.10%, the MDSCs in tumor turned out to be 7.86%, the “T Cells in Spleen” value stood at 37.19% and the “T Cells in tumor” value worked out at 29.44%.

On to `C=C1C(=O)O[C@@H]2[C@H]3C(C)=CC[C@@]34O[C@@]4(C)CC[C@@H]12` [arglabin, reference compound], for which, in data set [1], the “Non-degradation percentage at 8 h” value stood at 50.14%, the “Non-degradation percentage at 16 h” value is recorded as 48.70% and the “Non-degradation percentage at 24 h” value is recorded as 43.40%. In data set [2] (10 mg/kg/d i.g.), this compound showed a Tumor growth inhibition of 39.43% and a Tumor weight of 5.18 g. Also, in data set [3] (20 mg/kg/d i.g.), the Tumor growth inhibition turned out to be 34.94% and the Tumor weight came out at 5.31 g. In data set [4] (10 mg/kg/d i.g.), this compound registered a Tumor growth inhibition of 95.86%*** and a Tumor weight of 0.04 g. For the same compound, in data set [5] (10 mg/kg/d), the “MDSCs in Spleen” value is on record as 27.89%, the MDSCs in tumor was 27.0%, the “T Cells in Spleen” value is on record as 27.02% and the “T Cells in tumor” value was 17.72%.
